From patent publication US12403144B2, “HECT E3 ligase inhibitors and uses thereof” (IFOM FONDAZIONE ISTITUTO FIRC DI ONCOLOGIA MOLECOLARE, priority 2019, dated 2025)
Counter-ions that a name gives are not always drawn.

What follows are compounds tested against T1, untagged HECT of NEDD4 wild-type (WT) (E3 ligase) (Homo sapiens, UniProt P46934) (assay: In vitro ubiquitination assay TR-FRET based (self-ubiquitination of NEDD4)). Details: at 11 μM; pre-incubated for 1 hour; AUC of 120 minutes kinetic; read-out: percentages of inhibition (NEDD4).
T1 construct: untagged HECT of NEDD4 wild-type (WT) (E3 ligase); made in house
T1 sequence (P46934 519-900 isoform P46934-4 limits assumed): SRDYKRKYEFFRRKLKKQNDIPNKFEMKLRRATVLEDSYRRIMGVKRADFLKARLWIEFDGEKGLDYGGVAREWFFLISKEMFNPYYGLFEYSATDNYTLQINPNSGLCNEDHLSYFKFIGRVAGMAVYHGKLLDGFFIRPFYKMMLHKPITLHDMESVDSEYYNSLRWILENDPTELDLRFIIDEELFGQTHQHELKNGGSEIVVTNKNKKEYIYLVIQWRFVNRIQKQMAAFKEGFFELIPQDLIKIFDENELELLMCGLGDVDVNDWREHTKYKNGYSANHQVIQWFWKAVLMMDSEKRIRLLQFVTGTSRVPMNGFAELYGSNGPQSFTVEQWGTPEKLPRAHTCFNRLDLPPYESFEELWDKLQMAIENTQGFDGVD
Type: biochemical
From the text: FIG. 1: TR-FRET kinetic assay performed with compound 12. […] Reactions were initiated with the addition of ATP. As labeled ubiquitin molecules become incorporated into chains they come into close proximity, resulting in energy transfer and increased signal to background detection. The activity of the enzyme is continuously and real time detected and it is expressed as % of signal/background during the time.
In order to quantitatively measure the self-ubiquitination process of the E3 HECT ligase NEDD4 the inventors employed a TR-FRET based assay. TR-FRET technology exploits the long-lasting emission of lanthanide fluorescence to interpose a short time-delay between FRET donor excitation and emission. This phenomenon enables to isolate real fluorescent signals from short-lived background emissions, thus reducing possible interference from compounds.
In the present study, elongation of the ubiqutin chain by NEDD4 is measured by adding bacterially expressed E1, His-tagged UBE2D3 (E2) and untagged HECT of NEDD4 wild-type (WT) (E3 ligase) (named in FIG. 1 as WT) enzymes to a mixture of Eu-cryptate ubiquitin, Cy5-ubiquitin and wild-type ubiquitin, combined in a ratio optimized for TR-FRET based conjugation (100×TRF-Ubiquitin Mix, SBB-TR0051). […] Bacterially expressed E1, His-tagged UBE2D3 (E2), untagged HECT NEDD4 (E3 ligase) WT and NEDD4 C/A enzymes were produced and purified as reported in E. Maspero et al. Methods Mol Biol. 1449:153-60 (2016).
Enzymatic incorporation of the labeled TRF-Ubiquitin mix into chains leads to an increase in fluorescence emission at 665 nm (emission of the acceptor Cy5-Ubiquitin, Emacceptor) and decrease at emission wavelength 620 nm (emission of the donor Eu-cryptate Ubiquitin, Emdonor).
The assay was performed in a 384-well plate format (Optiplate, Perkin Elmer, #6007290) on an automated liquid-handler (Hamilton STAR, Hamilton Robotics, Switzerland).
All compounds were dissolved in 100% DMSO and serially diluted in 96-well plates (from 100 μM to 0.005 μM).
Briefly, all reagents were thawed and kept on ice. A master mix containing E1, E2, E3 and TRF-Ubiquitin Mix (SBB-TR0051) diluted in the assay buffer (Tris-HCl pH 7.6 25 mM, NaCl 100 mM, MgCl2 5 mM and Tween 0.01%) is prepared and 50 μl/well is dispensed in a 384 well plate. 3 μl of compounds dissolved in DMSO in the above-indicated concentration range were added and pre-incubated for 1 hour. Final E1, E2 and E3 concentrations in the assay buffer (Tris-HCl pH 7.6 25 mM, NaCl 100 mM, MgCl2 5 mM and Tween 0.01%) were 30, 350 and 50 nanomolars, respectively. The reaction was initiated with the addition of ATP (22 μl of 2 mM ATP, JenaBioscience, NU-1010) and was allowed to proceed for 120 minutes, measuring fluorescence emission at 665 nm and 620 nm in real-time on an EnSpire microplate reader (Perkin Elmer).
Kinetic raw data were analyzed by Area Under the Curve (AUC) method using Prism GraphPad software.
% signal/background corresponds to the following equation: (Experimental signal−Background signal)/Background signal×100%
Experimental signal corresponds to the signal obtained by the enzymatic reaction in presence of the vehicle (DMSO) and/or the different compound concentrations. Background signal corresponds to the signal obtained by the enzymatic reaction in absence of ATP.
The relative potency of the compounds was evaluated by dose-response curves following the enzymatic reaction of HECT NEDD4 WT in real time for 120 minutes.
Percentage of inhibition is then determined by the equation: % inhibition=100×[1−(X)/(MAX)],
where MAX correspond to AUC of the vehicle (DMSO) treated enzyme, and X corresponds to the AUC of the compound treated enzyme.
Work on `CCC(=O)/C=C/CN(C)CCCCN1c2ccccc2CCc2ccc(Cl)cc21` [Compound 54, (E)-6-[4-(3-chloro-10,11-dihydro-5H-dibenzo[b,f]azepin-5-yl)butyl-methyl-amino]hex-4-en-3-one maleate] yielded an inhibition at 11 µM greater than 50%. `CCOC(=O)/C=C/CNCCCN1c2ccccc2C(=O)N(CCO)c2ccc(Cl)cc21` [Compound 55, Ethyl (E)-4-({3-[7-chloro-10-(2-hydroxyethyl)-11-oxo-10,11-dihydro-5H-dibenzo[b,e][1,4]diazepin-5-yl]propyl}amino)but-2-enoate maleate] showed an inhibition at 11 µM of less than 30%. Compound `CC(=O)/C=C/CN(C)CCCCN1c2cc(Cl)ccc2C(=O)N(C)c2ccccc21` [Compound 57, 3-Chloro-10-methyl-5-(4-{methyl[(E)-4-oxopent-2-en-1-yl]amino}butyl)-5,10-dihydro-11H-dibenzo[b,e][1,4]diazepin-11-one maleate] has an inhibition at 11 µM greater than 50%. For `CON(C)C(=O)/C=C/CN(C)CCCCN1c2cc(Cl)ccc2C(=O)N(Cc2ccccc2)c2ccccc21` [Compound 59, (E)-4-{[4-(10-Benzyl-3-chloro-11-oxo-10,11-dihydro-5H-dibenzo[b,e][1,4]diazepin-5-yl)butyl](methyl)amino}-N-methoxy-N-methyl-but-2-enamide maleate], the inhibition at 11 µM was greater than 50%. Work on `CC(=O)/C=C/CN(C)CCCCN1c2cc(Cl)ccc2C(=O)N(Cc2ccccc2)c2ccccc21` [Compound 60, 10-Benzyl-3-chloro-5-(4-{methyl[(E)-4-oxo-pent-2-en-1-yl]amino}butyl)-5,10-dihydro-11H-dibenzo[b,e][1,4]diazepin-11-one maleate] yielded an inhibition at 11 µM greater than 50%. `COC(=O)/C=C/CNCCCCN1c2ccccc2CCc2ccc(Cl)cc21` [Compound 62, Methyl (E)-4-[4-(3-chloro-10,11-dihydro-5H-dibenzo[b,f]azepin-5-yl)butylamino]but-2-enoate maleate] showed an inhibition at 11 µM greater than 50%. In the case of `CCOC(=O)/C=C/CN(C)CCCCN1c2ccccc2CCc2ccc(Cl)cc21` [Compound 63, Ethyl (E)-4-{[4-(3-chloro-10,11-dihydro-5H-dibenzo[b,f]azepin-5-yl)butyl]-methyl-amino}but-2-enoate maleate], the inhibition at 11 µM is reported as greater than 50%. `CCOC(=O)/C=C/CN(CC)CCCCN1c2ccccc2CCc2ccc(Cl)cc21` [Compound 64, Ethyl (E)-4-{[4-(3-chloro-10,11-dihydro-dibenzo[b,f]azepin-5-yl)butyl]-ethyl-amino}but-2-enoate maleate] showed an inhibition at 11 µM greater than 50%. `CCOC(=O)/C=C/CN(CCCCN1c2ccccc2CCc2ccc(Cl)cc21)C(C)C` [Compound 65, Ethyl (E)-4-{[4-(3-chloro-10,11-dihydro-dibenzo[b,f]azepin-5-yl)butyl]-isopropyl-amino}but-2-enoate maleate] gave an inhibition at 11 µM greater than 50%. `CNC(=O)/C=C/CNCCCCN1c2ccccc2CCc2ccc(Cl)cc21` [Compound 66, (E)-4-{[4-(3-chloro-10,11-dihydro-5H-dibenzo[b,f]azepin-5-yl)butyl]amino}-N-methyl-but-2-enamide hydrochloride] showed an inhibition at 11 µM of 30 to 50%. With `CCOC(=O)/C=C/CNCCCCN1c2ccc(OC)cc2CCc2ccc(Cl)cc21` [Compound 67, Ethyl (E)-4-[4-(7-Chloro-2-methoxy-10,11-dihydro-dibenzo[b,f]azepin-5-yl)-butylamino]-but-2-enoate maleate] the inhibition at 11 µM was greater than 50%. `COC(=O)/C=C/CN(C)CCCCN1c2cc(Cl)ccc2COc2ccccc21` [Compound 68, Methyl (E)-4-[4-(3-chlorodibenzo[b,e][1,4]oxazepin-5(11H)-yl)butyl-methyl-amino]but-2-enoate] gave an inhibition at 11 µM greater than 50%. `CON(C)C(=O)/C=C/CN(C)CCCCN1c2cc(Cl)ccc2COc2ccccc21` [Compound 69, (E)-4-[4-(3-Chlorodibenzo[b,e][1,4]oxazepin-5(11H)-yl)butyl-methyl-amino]-N-methoxy-N-methyl-but-2-enamide] showed an inhibition at 11 µM greater than 50%. Work on `CC(=O)/C=C/CN(C)CCCCN1c2cc(Cl)ccc2COc2ccccc21` [Compound 70, (E)-5-[4-(3-Chlorodibenzo[b,e][1,4]oxazepin-5(11H)-yl)butyl-methyl-amino]pent-3-en-2-one maleate] yielded an inhibition at 11 µM greater than 50%. With `N#C/C=C/CNCCCCN1c2ccccc2CCc2ccc(Cl)cc21` [Compound 71, (E)-4-[4-(3-chloro-10,11-dihydro-5H-dibenzo[b,f]azepin-5-yl)butylamino]but-2-enenitrile maleate] the inhibition at 11 µM was greater than 50%. For `CN(C/C=C/C(N)=O)CCCCN1c2ccccc2CCc2ccc(Cl)cc21` [Compound 72, (E)-4-[4-(3-Chloro-10,11-dihydro-5H-dibenzo[b,f]azepin-5-yl)butyl-methyl-amino]but-2-enamide], the inhibition at 11 µM was greater than 50%. Compound `CN(C/C=C/C#N)CCCCN1c2ccccc2CCc2ccc(Cl)cc21` [Compound 73, (E)-4-[4-(3-Chloro-10,11-dihydro-5H-dibenzo[b,f]azepin-5-yl)butyl-methyl-amino]but-2-enenitrile maleate] has an inhibition at 11 µM greater than 50%. `CCOC(=O)/C=C/CNCCCCN1c2ccc(CO)cc2CCc2ccc(Cl)cc21` [Compound 74, Ethyl (E)-4-[4-(7-Chloro-2-hydroxymethyl-10,11-dihydro-dibenzo[b,f]azepin-5-yl)-butylamino]-but-2-enoate maleate] showed an inhibition at 11 µM greater than 50%. `CCOC(=O)/C=C/CNCCCCN1c2ccc(COC)cc2CCc2ccc(Cl)cc21` [Compound 75, Ethyl (E)-4-[4-(7-chloro-2-methoxymethyl-10,11-dihydro-dibenzo[b,f]azepin-5-yl)-butylamino]-but-2-enoate maleate] gave an inhibition at 11 µM greater than 50%. `CCOC(=O)/C=C/CNCCCCN1c2ccc(COCCOC)cc2CCc2ccc(Cl)cc21` [Compound 76, Ethyl (E)-4-[4-(7-chloro-2-methoxyethoxymethyl-10,11-dihydro-dibenzo[b,f]azepin-5-yl)-butylamino]-but-2-enoate maleate] showed an inhibition at 11 µM greater than 50%. Work on `O=C(/C=C/CNCCCCN1c2ccccc2CCc2ccc(Cl)cc21)NOCc1ccccc1` [Compound 79, (E)-4-[4-(3-chloro-10,11-dihydro-5H-dibenzo[b,f]azepin-5-yl)butylamino]-N-benzyloxy-but-2-enamide maleate] yielded an inhibition at 11 µM greater than 50%. Compound `CCONC(=O)/C=C/CNCCCCN1c2ccccc2CCc2ccc(Cl)cc21` [Compound 80, (E)-4-[4-(3-chloro-10,11-dihydro-5H-dibenzo[b,f]azepin-5-yl)butylamino]-N-ethoxy-but-2-enamide maleate] has an inhibition at 11 µM greater than 50%. For `CC(C)ONC(=O)/C=C/CNCCCCN1c2ccccc2CCc2ccc(Cl)cc21` [Compound 81, (E)-4-[4-(3-chloro-10,11-dihydro-5H-dibenzo[b,f]azepin-5-yl)butylamino]-N-isopropoxy-but-2-enamide maleate], the inhibition at 11 µM was greater than 50%. `O=C(/C=C/CNCCCCN1c2ccccc2CCc2ccc(Cl)cc21)NOc1ccccc1` [Compound 82, (E)-4-[4-(3-chloro-10,11-dihydro-5H-dibenzo[b,f]azepin-5-yl)butylamino]-N-phenoxy-but-2-enamide maleate] gave an inhibition at 11 µM greater than 50%.
